How the values were obtained:
Format in all cases: functional
Schistosoma japonicum [1] = experiment: Antischistosomal activity against adult Schistosoma japonicum assessed as worm survival at 25 uM after 48 hrs relative to control
Schistosoma japonicum [2] = experiment: Antischistosomal activity against adult Schistosoma japonicum assessed as worm survival at 50 uM after 72 hrs relative to control
Schistosoma japonicum [3] = experiment: Antischistosomal activity against adult Schistosoma japonicum assessed as worm survival at 25 uM after 24 hrs relative to control
Schistosoma japonicum [4] = experiment: Antischistosomal activity against juvenile Schistosoma japonicum infected in mouse assessed as total worm reduction at 200 mg/kg, po administered 14 days after infection relative to control; design: scale not given: the % may be the effect or the level left
Schistosoma japonicum [5] = experiment: Antischistosomal activity against adult Schistosoma japonicum assessed as worm survival at 15 uM after 24 hrs relative to control
Schistosoma japonicum [6] = experiment: Antischistosomal activity against juvenile Schistosoma japonicum assessed as worm survival at 25 uM after 24 hrs relative to control
Schistosoma japonicum [7] = experiment: Antischistosomal activity against adult Schistosoma japonicum assessed as worm survival at 50 uM after 48 hrs relative to control
Schistosoma japonicum [8] = experiment: Antischistosomal activity against juvenile Schistosoma japonicum assessed as worm survival at 50 uM after 48 hrs relative to control
Schistosoma japonicum [9] = experiment: Antischistosomal activity against juvenile Schistosoma japonicum assessed as worm survival at 25 uM after 72 hrs relative to control
Schistosoma japonicum [10] = experiment: Antischistosomal activity against juvenile Schistosoma japonicum assessed as worm survival at 25 uM after 48 hrs relative to control
Schistosoma japonicum [11] = experiment: Antischistosomal activity against adult Schistosoma japonicum assessed as worm survival at 20 uM after 48 hrs relative to control
Schistosoma japonicum [12] = experiment: Antischistosomal activity against adult Schistosoma japonicum assessed as worm survival at 25 uM after 72 hrs relative to control
Schistosoma japonicum [13] = experiment: Antischistosomal activity against adult Schistosoma japonicum assessed as worm survival at 15 uM after 48 hrs relative to control
Schistosoma japonicum [14] = experiment: Antischistosomal activity against adult Schistosoma japonicum assessed as worm survival at 20 uM after 24 hrs relative to control
Schistosoma japonicum [15] = experiment: Antischistosomal activity against adult Schistosoma japonicum assessed as worm survival at 50 uM after 24 hrs relative to control
Schistosoma japonicum [16] = experiment: Antischistosomal activity against juvenile Schistosoma japonicum assessed as worm survival at 50 uM after 24 hrs relative to control
Schistosoma japonicum [17] = experiment: Antischistosomal activity against adult Schistosoma japonicum infected in mouse assessed as total worm reduction at 200 mg/kg, po administered 21 days after infection relative to control; design: scale not given: the % may be the effect or the level left
Schistosoma japonicum [18] = experiment: Antischistosomal activity against adult Schistosoma japonicum assessed as worm survival at 20 uM after 72 hrs relative to control
Schistosoma japonicum [19] = experiment: Antischistosomal activity against juvenile Schistosoma japonicum assessed as worm survival at 50 uM after 72 hrs relative to control
Schistosoma japonicum [20] = experiment: Antischistosomal activity against adult Schistosoma japonicum assessed as worm survival at 15 uM after 72 hrs relative to control
Schistosoma japonicum [21] = experiment: Antischistosomal activity against adult Schistosoma japonicum assessed as worm survival at 80 uM after 24 hrs relative to control
Schistosoma japonicum [22] = experiment: Antischistosomal activity against adult Schistosoma japonicum assessed as worm survival at 80 uM after 72 hrs relative to control
Schistosoma japonicum [23] = experiment: Antischistosomal activity against adult Schistosoma japonicum assessed as worm survival at 100 uM after 24 hrs relative to control
Schistosoma japonicum [24] = experiment: Antischistosomal activity against adult Schistosoma japonicum assessed as worm survival at 100 uM after 48 hrs relative to control
Schistosoma japonicum [25] = experiment: Antischistosomal activity against adult Schistosoma japonicum assessed as worm survival at 80 uM after 48 hrs relative to control
Schistosoma japonicum [26] = experiment: Antischistosomal activity against adult Schistosoma japonicum assessed as worm survival at 100 uM after 72 hrs relative to control
Schistosoma japonicum [27] = experiment: Antischistosomal activity against adult Schistosoma japonicum assessed as worm survival at 70 uM after 72 hrs relative to control
Schistosoma japonicum [28] = experiment: Antischistosomal activity against adult Schistosoma japonicum assessed as worm survival at 70 uM after 24 hrs relative to control
Schistosoma japonicum [29] = experiment: Antischistosomal activity against adult Schistosoma japonicum assessed as worm survival at 60 uM after 48 hrs relative to control
Schistosoma japonicum [30] = experiment: Antischistosomal activity against adult Schistosoma japonicum assessed as worm survival at 60 uM after 72 hrs relative to control
Schistosoma japonicum [31] = experiment: Antischistosomal activity against adult Schistosoma japonicum assessed as worm survival at 70 uM after 48 hrs relative to control
Schistosoma japonicum [32] = experiment: Antischistosomal activity against adult Schistosoma japonicum assessed as worm survival at 60 uM after 24 hrs relative to control
Schistosoma japonicum [33] = experiment: Antischistosomal activity against juvenile Schistosoma japonicum assessed as worm survival at 100 uM after 48 hrs relative to control
Schistosoma japonicum [34] = experiment: Antischistosomal activity against juvenile Schistosoma japonicum assessed as worm survival at 100 uM after 72 hrs relative to control
Schistosoma japonicum [35] = experiment: Antischistosomal activity against juvenile Schistosoma japonicum assessed as worm survival at 100 uM after 24 hrs relative to control

| Compound | survival at 50 µM (Schistosoma japonicum [2]) | Activity (Schistosoma japonicum [4]) | survival at 50 µM (Schistosoma japonicum [7]) | survival at 50 µM (Schistosoma japonicum [8]) | survival at 50 µM (Schistosoma japonicum [15]) | survival at 50 µM (Schistosoma japonicum [16]) | Activity (Schistosoma japonicum [17]) | survival at 50 µM (Schistosoma japonicum [19]) | survival at 80 µM (Schistosoma japonicum [21]) | survival at 80 µM (Schistosoma japonicum [22]) | survival at 100 µM (Schistosoma japonicum [23]) | survival at 100 µM (Schistosoma japonicum [24]) | survival at 80 µM (Schistosoma japonicum [25]) | survival at 100 µM (Schistosoma japonicum [26]) | further results |
| --- | --- | --- | --- | --- | --- | --- | --- | --- | --- | --- | --- | --- | --- | --- | --- |
| O=C(Nc1ccc2c(c1)C1CN(C(=O)C3CCCCC3)CC(=O)N1CC2)C1CCC2(CC1)OOC1(CCCCC1)OO2 (stereo unspecified) | 0% | 25.1% | 0% | 0% | 0% | 33.3% | 38.7% | 0% |  |  |  |  |  |  | survival at 25 µM (Schistosoma japonicum [1]): 0%; survival at 25 µM (Schistosoma japonicum [3]): 60%; survival at 15 µM (Schistosoma japonicum [5]): 100%; survival at 25 µM (Schistosoma japonicum [6]): 37.5%; survival at 25 µM (Schistosoma japonicum [9]): 12.5%; survival at 25 µM (Schistosoma japonicum [10]): 33.3%; survival at 20 µM (Schistosoma japonicum [11]): 100%; survival at 25 µM (Schistosoma japonicum [12]): 40%; survival at 15 µM (Schistosoma japonicum [13]): 100%; survival at 20 µM (Schistosoma japonicum [14]): 100%; survival at 20 µM (Schistosoma japonicum [18]): 100%; survival at 15 µM (Schistosoma japonicum [20]): 100% |
| O=C(Oc1ccc2c(c1)C1CN(C(=O)C3CCCCC3)CC(=O)N1CC2)C1CCC2(CC1)OOC1(CCCCC1)OO2 (stereo unspecified) | 80% |  | 80% | 14.3% | 40% | 0% |  | 14.3% | 80% | 40% | 80% | 20% | 80% | 0% |  |
| O=C(Nc1ccc2c(c1)C1CN(C(=O)C3CCCCC3)CC(=O)N1CC2)C1CCC2(CC1)OOC1(O2)C2CC3CC(C2)CC1C3 (stereo unspecified) | 100% |  | 100% |  | 100% |  |  |  |  |  |  |  |  |  |  |
| O=C(Oc1ccc2c(c1)C1CN(C(=O)C3CCCCC3)CC(=O)N1CC2)C1CCC2(CC1)OOC1(O2)C2CC3CC(C2)CC1C3 (stereo unspecified) | 40% |  | 40% |  | 40% |  |  |  | 0% | 0% |  |  | 0% |  | survival at 70 µM (Schistosoma japonicum [27]): 20%; survival at 70 µM (Schistosoma japonicum [28]): 20%; survival at 60 µM (Schistosoma japonicum [29]): 40%; survival at 60 µM (Schistosoma japonicum [30]): 40%; survival at 70 µM (Schistosoma japonicum [31]): 40%; survival at 60 µM (Schistosoma japonicum [32]): 40% |
| O=C(C1CCCCC1)N1CC(=O)N2CCc3ccccc3C2C1 (stereo unspecified) [PRAZIQUANTEL] | 36.3% | 19.8% | 44.4% |  | 62.9% |  | 66.7% |  | 28.8% | 10% | 10% | 4.4% | 19.1% | 1.4% | survival at 100 µM (Schistosoma japonicum [33]): 100%; survival at 100 µM (Schistosoma japonicum [34]): 100%; survival at 100 µM (Schistosoma japonicum [35]): 100% |

From ChEMBL document CHEMBL1949576, “Praziquantel derivatives exhibit activity against both juvenile and adult Schistosoma japonicum” (2012)
